Source: patent publication US20170292961A1, “SYSTEMS AND METHODS FOR ASSESSING INTER-CELL COMMUNICATION” (Q-STATE BIOSCIENCES, INC., priority 2014, published 2017)
Changes are numbered by the printed parent chain. Numbers in names are those of the source. Where “and” joins values, the source holds several entries; their conditions need not be identical. Identical values can stand only once. Like-named read-outs stand apart in the source and are kept apart here.

What was measured:
[1] = tested on: estrogen sulfotransferase; conditions: pathway of metabolism of birth control pill ingredients; cited from earlier work
patient-derived neurons = assay: Spike frequency of patient-derived neurons exposed to an anticonvulsant; assay type: cell-based; conditions: for spike frequency: in DMSO versus DMSO alone
Excerpt: FIG. 52 illustrates the results of exposing patient-derived neurons to acute doses of an anticonvulsant. A frequency of spiking is plotted over unitless scaled stimulus strength. Angled vertical lines are drawn onto the graph to aid in showing which data points correspond to one another. Asterisks are used to indicate a significance of a difference. […] FIG. 53 illustrates the results of exposing patient-derived neurons to chronic doses of an anticonvulsant. A frequency of spiking is plotted over unitless scaled stimulus strength. After exposure to STR in DMSO (versus exposure to the DMSO alone), spike frequency is decreased. […] Thus it can be seen that methods and compositions of the invention may be used to evaluate signal propagation between cells such as cardiomyocytes or neurons.

neurons = tested on: neurons
Excerpt: Methods of the invention may be used to evaluate the effects of compounds on neurons. In some embodiments, the cells that include the optical voltage reporter are neurons and those neurons are exposed to a voltage-gated potassium channel blocker such as tetraethylammonium.

membrane voltage [2] = conditions: literature indicators; cited from earlier work
HEK 293T cells = assay: Arch fluorescence versus membrane potential in HEK cells under whole-cell voltage clamp; assay type: cell-based, human
Excerpt: An optical reporter such as Arch 3 may be expressed in human embryonic kidney 293 (HEK293T) cells. Fluorescence of Arch 3 in HEK 293T cells was readily imaged in an inverted fluorescence microscope with red illumination (=640 nm, I=540 W/cm2), a high numerical aperture objective, a Cy5 filter set, and an EMCCD camera.
Fluorescence of Arch 3 in HEK 293 cells was readily imaged in an inverted fluorescence microscope with red illumination (lambda=640 nm, I=540 W/cm̂2), a high numerical aperture objective, a Cy5 filter set, and an EMCCD camera. […] Cells not expressing Arch were not fluorescent.
The fluorescence of HEK cells expressing Arch was highly sensitive to membrane potential, as determined via whole-cell voltage clamp. We developed an algorithm to combine pixel intensities in a weighted sum such that the output, was a nearly optimal estimate of membrane potential V determined by conventional electrophysiology.
The fluorescence was divided by its value at −150 mV. The fluorescence increased by a factor of 2 between −150 mV and +150 mV, with a nearly linear response throughout this range (FIG. 35). The response of fluorescence to a step in membrane potential occurred within the 500 micro s time resolution of our imaging system on both the rising and falling edge.
The overshoots on the rising and falling edges were an artifact of electronic compensation circuitry. Data were an average of 20 cycles. […] Cells not expressing Arch 3 were not fluorescent. […] Application of a sinusoidally varying membrane potential led to sinusoidally varying fluorescence; at f=1 kHz, the fluorescence oscillations retained 55% of their low-frequency amplitude (FIG. 37). Arch reported voltage steps as small as 10 mV, with an accuracy of 625 micro V/(Hz)̂(1/2) over timescales<12 s (FIG. 38). Over longer timescales laser power fluctuations and cell motion degraded the accuracy.

membrane voltage [3] = assay: Speed and sensitivity of fluorescent voltage indicators
Excerpt: Membrane voltage can be measured with a precision of <1 mV in a 1 s interval. […] Arch 3 WT retains the photo-induced proton-pumping, so illumination slightly hyperpolarizes the cell. […] The voltage-indicating protein reporters, sometimes referred to as genetically encoded voltage indicators (GEVIs), may be excited with a laser at wavelengths between 590-640 nm, and the emission is in the near infrared, peaked at 710 nm.

Excerpt for cardiomyocytes: In some embodiments, the reporter cells also include an optical ion sensor that indicates an intracellular concentration of an ion, for example, a calcium reporter. In a preferred embodiment, the optical voltage reporter and the calcium reporter are provided together within a fusion protein. For example, the fusion protein may be CaViar which includes a calcium reporter and a voltage indicator. Using such a fusion protein, detecting the optical signal may include detecting an action potential and calcium transients.
The columns show results from increasing concentrations and each panel is fluorescence over time.

For `CO[C@H]1/C=C/O[C@@]2(C)Oc3c(C)c(O)c4c(O)c(c(/C=N/N5CCN(C)CC5)c(O)c4c3C2=O)NC(=O)/C(C)=C\C=C\[C@H](C)[C@H](O)[C@@H](C)[C@@H](O)[C@@H](C)[C@H](OC(C)=O)[C@@H]1C` [Rifampin], the “induction of estrogen sulfotransferase” value [1] is listed as “induce”.

With `O=C(NCC1CCCCN1)c1cc(OCC(F)(F)F)ccc1OCC(F)(F)F` (stereo not drawn) [flecainide] the AP30 (cardiomyocytes) was “decrease”, the AP60 (cardiomyocytes) was “decrease” and the AP90 (cardiomyocytes) was “decrease”. The Ca amplitude (cardiomyocytes) was “decrease”, the “average action potential waveform” value (cardiomyocytes) was “diverge dramatically” and the “calcium trace (fluorescence over time)” value (cardiomyocytes) was “dramatically diminished”. For the same molecule, the rise time (cardiomyocytes) was “increase”, the “rise time (average, FIG. 46)” value (cardiomyocytes) was “interferes with rise time” and the “voltage trace (fluorescence over time)” value (cardiomyocytes) was “dramatically diminished”.

With `COc1c(N2C[C@@H]3CCCN[C@@H]3C2)c(F)cc2c(=O)c(C(=O)O)cn(C3CC3)c12` [moxifloxacin] the AP30 (cardiomyocytes) was “decrease”, the AP60 (cardiomyocytes) was “decrease” and the AP90 (cardiomyocytes) was “decrease”. The Ca amplitude (cardiomyocytes) was “decrease”, the “average action potential waveform” value (cardiomyocytes) was “AP prolongation” and the “calcium trace (fluorescence over time)” value (cardiomyocytes) was “severely diminished”. For the same molecule, the rise time (cardiomyocytes) was “increase” and the “voltage trace (fluorescence over time)” value (cardiomyocytes) was “less pronounced effect”.

With `CC(C)(C)C(O)/C=C/c1ccc2c(c1)OCO2` (stereo not drawn) [stiripentol] the spike frequency (patient-derived neurons; acute doses) was “significantly decreased”, the spike frequency (patient-derived neurons; chronic doses) was “decreased” and the “impact on spike frequency, acute versus chronic exposure” value (patient-derived neurons; visual comparison of FIG. 52 to FIG. 53) was “acute STR has a more severe impact on spike frequency than chronic exposure”.

For `CC[N+](CC)(CC)CC` [tetraethylammonium], the instantaneous firing rate (neurons; after a few seconds of increasing stimulus intensity, before vs after exposure) was “unexposed cells (“before”) consistently fire at a higher rate”, the Ahp (neurons; after exposure) was “change in Ahp” and the “number of spiking cells” value (neurons; after exposure) was “reduction in the number of spiking cells”. The “return of fluorescence to baseline (average waveform)” value (neurons; after exposure) was “does not return to baseline to the degree it did before exposure”, the spike height (neurons; after exposure) was “lower” and the instantaneous firing rate (neurons; lower stimulus intensities (time=0 to about 2 s), exposed cells) was “a few very high spikes in firing rate”.

For Flash, the “f (delta F/F per 100 mV)” value (membrane voltage [2]) is given as 5.1% and the response time (membrane voltage [2]) is given as 2.8 to 85 ms.

B1: Arch 3 WT: wild type Archaerhodopsin 3, light-driven proton pump from Halorubrum sodomense used as fluorescent voltage indicator (protein, UniProt P96787 7-258, looked up)
Archaerhodopsin-3: QAGYDLLGDGRPETLWLGIGTLLMLIGTFYFLVRGWGVTDKDAREYYAVTILVPGIASAAYLSMFFGIGLTEVTVGGEMLDIYYARYADWLFTTPLLLLDLALLAKVDRVTIGTLVGVDALMIVTGLIGALSHTAIARYSWWLFSTICMIVVLYFLATSLRSAAKERGPEVASTFNTLTALVLVLWTAYPILWIIGTEGAGVVGLGIETLLFMVLDVTAKVGFGFILLRSRAILGDTEAPEPSAGADVSAAD
With B1 the “smallest voltage steps reported” value (HEK 293T cells) was 10 mV, the “fluorescence increase (factor)” value (HEK 293T cells; between −150 mV and +150 mV) was 2 and the “response of fluorescence to a step in membrane potential” value (HEK 293T cells; rising and falling edge, time resolution of imaging system) was at most 500 micro s. For the same molecule, the “fluorescence oscillation amplitude retained relative to low-frequency amplitude” value (HEK 293T cells; sinusoidally varying membrane potential, f=1 kHz) was 55%, the step response time (HEK 293T cells; steps between −70 mV and +30 mV, resolution of imaging system) was under 0.5 ms and the “accuracy of reported voltage” value (HEK 293T cells; timescales<12 s) was 625 micro V/(Hz)̂(1/2). For the same molecule, the “time to 90% of step response” value (membrane voltage [3]) was 0.6 ms and the response time (membrane voltage [3]; Arch indicators) was < 0.5 ms and 0.6 ms.

B2: Arch D95N: Archaerhodopsin 3 with D95N mutation, voltage indicator (protein, UniProt P96787 7-258, looked up, variant D95N)
Archaerhodopsin-3: B1 Archaerhodopsin-3 with D89N
For B2, the “f (delta F/F per 100 mV)” value (membrane voltage [3]; Arch indicators) was 100% and the response time (membrane voltage [3]; Arch indicators) was 41 ms.
